Reference: patent US20080076718A1, “Novel Proteasome Modulators” (priority 2003, published 2008)
pIC50: −log10 of the molar value. Like-named read-outs stand apart in the source and are kept apart here. Values belong to the compound of their own block, whether it stands above or below them. Square brackets hold non-standard residues; d marks the D form. Ends that are not written are not given here. Peptide text beside a SMILES is read from it. * marks the point of attachment. Biotin = O=C1N[C@H]2[C@H](CS[C@H]2CCCCC(=O)*)N1; Bpa = N[C@@H](Cc1ccc(C(=O)c2ccccc2)cc1)C(=O)O; Decanoyl = CCCCCCCCCC(=O)*; Octanoyl = CCCCCCCC(=O)*; Ava = NCCCCC(=O)O

Assays:
Type in all cases: biochemical, yeast (Saccharomyces cerevisae)
[1] = target: T1, yeast activated 20S proteasome (CT-L activity) (Saccharomyces cerevisiae, UniProt P23724+P30656); test: Inhibition of the CT-L (chymotrypsin-like) peptidase activity of the activated 20S proteasome, substrate Suc-LLVY-amc; conditions: for Increase of the inhibitory capacity compared with the unmodified peptide (factor): lipopeptide versus corresponding peptide, CT-L activity of activated 20S proteasome; for Inhibitory effect of the lipopeptides on the CT-L activity: yeast activated 20S proteasome, after treatment with 35 μM of lipopeptide (17.5 μM for C18/TVTYKF)
T1 construct: The yeast (Saccharomyces cerevisae) 26S and 20S proteasomes were purified according to the protocol described in; made in house; host or cells: Saccharomyces cerevisiae (native complex purified from yeast by the cited Leggett et al. 2002 protocol)
Description: (§1) The yeast (Saccharomyces cerevisae) 26S and 20S proteasomes were purified according to the protocol described in: LEGGETT et al. (2002) Molecular Cell, 10, pp 495-507.
(§2) The peptidase activities were determined using the fluorogenic substrates Suc-LLVY-amc (CT-L), Z-LLE-βNA (PA) and Boc-LRR-amc (T-L), provided by the company Bachem (Voisins-le-Bretonneux, France).
(§3) The peptidase activities of the yeast and Xenopus 26S proteasomes and those of the yeast 20S proteasome, latent and activated, were determined under the conditions described in Table II.
(§4) The compounds studied are solubilized in the buffer (peptides, pseudopeptides) or in DMSO (lipopeptides, photoactivatable peptides). The enzyme is preincubated (15 min at 30° C.) in the corresponding buffer (Table II), in the presence of the inhibitor. For the cases where the inhibitor is solubilized in DMSO (lipopeptides, photoactivatable peptides), the control without inhibitor contains an amount of DMSO identical to that of the assays with inhibitor (3.5% v/v). The reaction is triggered by adding the substrate. It is continuously monitored for 30 min at 30° C. The initial rates of the assays with inhibitors (calculated from the experimental points) are compared with those of the controls. The results presented were obtained by calculating the mean of at least two independent assays. The variability is less than 10%.
(§5) The IC50 parameter corresponds to the concentration of inhibitor that results in a 50% loss of enzymatic activity.
(§6) The enzyme is preincubated in the presence of increasing concentrations of inhibitor. The reaction is triggered by adding the substrate (see paragraph “Detection and study of the inhibitory effects”). The percentage inhibition is calculated from equation 1.
(§7) The experimental points describe the evolution of the inhibitory effect of the compound studied as a function of its concentration. As a general rule, they fit with the curve described by equation 2 in which [I] is the concentration of inhibitor
The mechanism of inhibition is determined by tracing the curve of the evolution of the V0/Vi ratio as a function of the concentration of inhibitor.

[2] = target: T2, activated 20S proteasome (PA activity) (Saccharomyces cerevisiae, UniProt P25043+P38624); test: Inhibition of the post-acid (PA) peptidase activity of the activated 20S proteasome, substrate Z-LLE-βNA
T2 construct: The yeast (Saccharomyces cerevisae) 26S and 20S proteasomes were purified according to the protocol described in; made in house; host or cells: Saccharomyces cerevisiae (native complex purified from yeast by the cited Leggett et al. 2002 protocol)
Description: as §1, §2, §3, §4, §5, §6, §7

[3] = target: T3, latent 20S proteasome (CT-L activity) (Saccharomyces cerevisiae, UniProt P23724+P30656); test: Activating effect on the CT-L activity of the latent 20S proteasome (activation factor fa); design: key: fa = initial rate with compound / initial rate of control (Va/V0); conditions: fa = Va/V0, concentration not given
T3 construct: The yeast (Saccharomyces cerevisae) 26S and 20S proteasomes were purified according to the protocol described in; made in house; host or cells: Saccharomyces cerevisiae (native complex purified from yeast by the cited Leggett et al. 2002 protocol)
Description: as §1, §2, §3
(§8) The compounds studied are solubilized in the buffer or in DMSO. The enzyme is preincubated (15 minutes at 30° C.) in the corresponding buffer (Table II), in the presence of the molecule to be tested. When the molecule is solubilized in DMSO, the control (no addition molecule to be tested) contains an amount of DMSO identical to that of the assays(3.5% v/v). The reaction is triggered by adding the substrate. It is continuously monitored for 30 minutes at 30° C. The results presented were obtained by calculating the mean of at least two independent assays. An activation is characterized by an activity, after treatment with the molecule tested, of greater than 100%. The variability is less than 10%. The results are expressed by means of an activation factor fa equal to the ratio of the initial rate Va in the presence of the compound tested to the initial rate of the control V0.

[4] = target: T4, latent 20S proteasome (T-L activity) (Saccharomyces cerevisiae, UniProt P25043+P25451); test: Activating effect on the T-L activity of the latent 20S proteasome (activation factor fa); conditions: fa = Va/V0, concentration not given
T4 construct: The yeast (Saccharomyces cerevisae) 26S and 20S proteasomes were purified according to the protocol described in; made in house; host or cells: Saccharomyces cerevisiae (native complex purified from yeast by the cited Leggett et al. 2002 protocol)
Description: as §1, §2, §3, §8

[5] = activated 20S proteasome, read-out: CT-L activity: IC50

Compound: CCCCCCCC(=O)N[C@H](C(=O)N[C@H](C(=O)N[C@H](C(=O)N[C@@H](Cc1ccc(O)cc1)C(=O)N[C@@H](CCCCN)C(=O)N[C@@H](Cc1ccccc1)C(=O)O)[C@@H](C)O)C(C)C)[C@@H](C)O [C8/TVTYKF, CH3—(CH2)6—CO-TVTYKF] (Octanoyl-TVTYKF-OH; C-terminus assumed)
pIC50 [1, 5]: ~4.46
Increase of the inhibitory capacity compared with the unmodified peptide (factor) [1]: 17
Inhibitory effect of the lipopeptides on the CT-L activity [1]: 50%

Compound: CCCCCCCCCC(=O)N[C@H](C(=O)N[C@H](C(=O)N[C@H](C(=O)N[C@@H](Cc1ccccc1)C(=O)N[C@@H](CCCCN)C(=O)N[C@@H](Cc1ccccc1)C(=O)O)[C@@H](C)O)C(C)C)[C@@H](C)O [C10/TVTFKF, CH3—(CH2)8—CO-TVTFKF] (Decanoyl-TVTFKF-OH; C-terminus assumed)
pIC50 [1, 5]: ~4.46
Increase of the inhibitory capacity compared with the unmodified peptide (factor) [1]: 6.5
Inhibitory effect of the lipopeptides on the CT-L activity [1]: 42%

Compound: CC(C)C[C@@H](CNCC(=O)N1CCC[C@H]1C(=O)N[C@@H](CO)C(=O)O)NC(=O)[C@H](CC(N)=O)NC(=O)[C@@H](N)[C@@H](C)O [Pseudopeptide 1, TNL-ψ[CH2—NH]-GPS]
Mechanism of inhibition (kinetic analysis, V0/Vi versus inhibitor concentration) ([1]; activated 20S proteasome): reacts with the catalytic sites and the regulatory site(s)
pIC50 ([1]; estimated values, activity type not named at the place, peptide tested under conditions where its hydrolysis is negligible, read-out: IC50 (activated 20S proteasome inhibitor)): 3.42
inhibition at 500 µM ([2]; inhibitor 500 μM): 63%

pIC50 ([1]; enzyme form and activity not stated at the place, read-out: IC50): 4.49
Compound: CC(C)[C@H](NC(=O)[C@@H](NC(=O)CCCCNC(=O)CCCC[C@@H]1SC[C@@H]2NC(=O)N[C@@H]21)[C@@H](C)O)C(=O)N[C@H](C(=O)N[C@@H](Cc1ccc(C(=O)c2ccccc2)cc1)C(=O)N[C@@H](CCCCN)C(=O)N[C@@H](Cc1ccccc1)C(=O)O)[C@@H](C)O [Pseudopeptide 3, Biot-Ava-TVT-Bpa-KF] ({Biotin-Ava}-TVT[Bpa]KF-OH; C-terminus assumed)

Compound: Ac-TNL-ψ[CH2—NH]-GPS [Pseudopeptide 2]
Effectiveness relative to pseudopeptide 1 ([1]; activated 20S proteasome): half as effective as 1
Inhibition of the post-acid activity PA ([2]; inhibitor 1 mM): 28%

Compound: CH3—(CH2)12—CO-TVTYKF [C14/TVTYKF]
Inhibitory effect of the lipopeptides on the CT-L activity [1]: 0%
fa CT-L activity [3]: 2

Compound: CH3—(CH2)14—CO-TITFDY [C16/TITFDY]
Inhibitory effect of the lipopeptides on the CT-L activity [1]: 20%
fa CT-L activity [3]: 3

Compound: CH3—(CH2)14—CO-TVTYKF
fa CT-L activity [3]: 2

Compound: CH3—(CH2)16—CO-TITFDY [C18/TITFDY]
Inhibitory effect of the lipopeptides on the CT-L activity [1]: 34%
fa CT-L activity [3]: 6
fa T-L activity [4]: 1.2

Compound: CH3—(CH2)16—CO-TVTYKF
fa CT-L activity [3]: 3.2

Compound: TITFDY [reference compound]
fa CT-L activity [3]: 5
fa T-L activity [4]: 3

Compound: TITYDF
fa T-L activity [4]: 2.5

Compound: TITYEY [reference compound]
fa CT-L activity [3]: 2

Compound: TITYKF [TITYKF, reference compound]
Mechanism of inhibition (kinetic analysis, V0/Vi versus inhibitor concentration) ([1]; activated 20S proteasome): parabolic kinetics
pIC50 [1, 5]: 3.59
pIC50 [2]: 3.47

Compound: TVTFKF [TVTFKF, reference compound]
Mechanism of inhibition (kinetic analysis, V0/Vi versus inhibitor concentration) ([1]; activated 20S proteasome): parabolic kinetics
pIC50 [1, 5]: 3.64
fa CT-L activity [3]: 2.3
fa T-L activity [4]: 1.7
pIC50 [2]: 3.68
